The values below come from ChEMBL document CHEMBL3862039 (ACS Med Chem Lett, 2016).

The target in test [1] is T1, Androgen receptor (Homo sapiens) (UniProt P10275).
T1 sequence (whole entry): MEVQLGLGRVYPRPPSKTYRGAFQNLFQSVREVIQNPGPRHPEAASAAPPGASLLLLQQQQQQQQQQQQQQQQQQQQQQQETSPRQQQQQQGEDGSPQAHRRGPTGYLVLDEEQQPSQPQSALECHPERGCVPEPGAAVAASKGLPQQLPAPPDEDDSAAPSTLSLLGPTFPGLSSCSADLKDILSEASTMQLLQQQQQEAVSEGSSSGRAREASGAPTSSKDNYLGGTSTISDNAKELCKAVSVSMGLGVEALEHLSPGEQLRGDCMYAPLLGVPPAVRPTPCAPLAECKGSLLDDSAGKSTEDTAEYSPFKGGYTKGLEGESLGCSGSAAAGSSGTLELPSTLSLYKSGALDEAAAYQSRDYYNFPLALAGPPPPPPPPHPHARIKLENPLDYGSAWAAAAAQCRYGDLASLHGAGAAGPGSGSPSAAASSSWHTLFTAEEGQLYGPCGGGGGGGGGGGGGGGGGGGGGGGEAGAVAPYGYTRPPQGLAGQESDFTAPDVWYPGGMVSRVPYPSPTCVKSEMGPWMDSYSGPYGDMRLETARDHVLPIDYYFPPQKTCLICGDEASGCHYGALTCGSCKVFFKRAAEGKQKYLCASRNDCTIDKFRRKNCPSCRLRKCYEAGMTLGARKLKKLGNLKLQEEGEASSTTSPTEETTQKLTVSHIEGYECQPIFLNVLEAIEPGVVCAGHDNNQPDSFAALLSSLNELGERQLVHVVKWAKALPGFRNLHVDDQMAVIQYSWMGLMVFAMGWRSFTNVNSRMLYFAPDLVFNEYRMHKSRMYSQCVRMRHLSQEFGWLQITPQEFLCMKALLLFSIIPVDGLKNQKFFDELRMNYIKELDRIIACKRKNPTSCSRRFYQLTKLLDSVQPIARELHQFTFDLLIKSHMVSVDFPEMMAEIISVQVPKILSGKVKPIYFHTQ
The following applies: LNCaP, at 5 µM.
Description: Antagonist activity at AR in human LNCAP cells assessed as suppression of DHT-induced receptor transcriptional activity at 5 uM after 24 hrs by dual luciferase reporter gene assay

The target in test [2] is T1, Androgen receptor (Homo sapiens). The experiment in a line: Antagonist activity at AR in human LNCAP cells assessed as suppression of DHT-induced receptor transcriptional activity at 500 nM after 24 hrs by dual luciferase reporter gene assay. Format: cell-based.
For test [3], the system named is PC-3. The experiment in a line: Agonist activity at AR W741C/T877A double mutant (unknown origin) expressed in human PC3 cells assessed as receptor transactivation at 5 uM after 24 hrs by PSA-luciferase reporter gene assay. The test is classed as cell-based.
For test [4], the system named is T2, Androgen receptor (Homo sapiens), P10275 [F877L].
T2 sequence (whole entry): T1 sequence (whole entry) with F877L
The experiment in a line: Antagonist activity at AR F876L mutant (unknown origin) transfected in human PC3 cells assessed as suppression of DHT-induced receptor transcriptional activity at 500 nM after 24 hrs by PSA-luciferase reporter gene assay. Format: cell-based. Particulars: PC-3.

Test [5] concerns the target T1, Androgen receptor (Homo sapiens). The experiment in a line: (§1) Antagonist activity at wild type AR in human PC3 cells assessed as suppression of DHT-induced receptor transcriptional activation after 24 hrs by PSA-luciferase reporter gene assay. Particulars: PC-3. Format: cell-based.
The target of test [6] is T3, Androgen receptor (Homo sapiens, UniProt P10275).
T3 sequence (P10275 whole entry): T1 sequence (whole entry)
Described as §1. Format: cell-based, PC-3.

For test [7], the system named is Androgen receptor (Homo sapiens), P10275 [T878A]. The experiment in a line: (§2) Antagonist activity at AR T877A mutant (unknown origin) transfected in human PC3 cells assessed as inhibition of DHT-induced receptor transcriptional activation after 24 hrs by PSA-luciferase reporter gene assay. Format: cell-based. The following applies: PC-3.
The target in test [8] is Androgen receptor (Homo sapiens, UniProt P10275, T878A). The test is described as §2. Format: cell-based, PC-3.
Test [9] has as its target T1, Androgen receptor (Homo sapiens). The experiment in a line: Antagonist activity at AR in human LNCAP cells assessed as downregulation of PSA mRNA levels at 500 nM after 24 hrs in presence of DHT by RT-PCR analysis. The test is classed as cell-based.
Test [10] shares this target. The experiment in a line: Antagonist activity at AR in human LNCAP cells assessed as downregulation of PSA mRNA levels at 5 uM after 24 hrs in presence of DHT by RT-PCR analysis. The test is classed as cell-based.
For a further test, the system named is LNCaP. The experiment in a line: Cytotoxicity against human LNCAP cells assessed as cell growth inhibition after 72 hrs by MTT assay. Format: functional, cell-based.
The test system of test [11] is PC-3. The experiment in a line: Cytotoxicity against human PC3 cells assessed as cell growth inhibition after 72 hrs by MTT assay. Format: functional, cell-based.
Test [12] addresses T4, Androgen receptor (Rattus norvegicus) (UniProt P15207).
T4 sequence (whole entry): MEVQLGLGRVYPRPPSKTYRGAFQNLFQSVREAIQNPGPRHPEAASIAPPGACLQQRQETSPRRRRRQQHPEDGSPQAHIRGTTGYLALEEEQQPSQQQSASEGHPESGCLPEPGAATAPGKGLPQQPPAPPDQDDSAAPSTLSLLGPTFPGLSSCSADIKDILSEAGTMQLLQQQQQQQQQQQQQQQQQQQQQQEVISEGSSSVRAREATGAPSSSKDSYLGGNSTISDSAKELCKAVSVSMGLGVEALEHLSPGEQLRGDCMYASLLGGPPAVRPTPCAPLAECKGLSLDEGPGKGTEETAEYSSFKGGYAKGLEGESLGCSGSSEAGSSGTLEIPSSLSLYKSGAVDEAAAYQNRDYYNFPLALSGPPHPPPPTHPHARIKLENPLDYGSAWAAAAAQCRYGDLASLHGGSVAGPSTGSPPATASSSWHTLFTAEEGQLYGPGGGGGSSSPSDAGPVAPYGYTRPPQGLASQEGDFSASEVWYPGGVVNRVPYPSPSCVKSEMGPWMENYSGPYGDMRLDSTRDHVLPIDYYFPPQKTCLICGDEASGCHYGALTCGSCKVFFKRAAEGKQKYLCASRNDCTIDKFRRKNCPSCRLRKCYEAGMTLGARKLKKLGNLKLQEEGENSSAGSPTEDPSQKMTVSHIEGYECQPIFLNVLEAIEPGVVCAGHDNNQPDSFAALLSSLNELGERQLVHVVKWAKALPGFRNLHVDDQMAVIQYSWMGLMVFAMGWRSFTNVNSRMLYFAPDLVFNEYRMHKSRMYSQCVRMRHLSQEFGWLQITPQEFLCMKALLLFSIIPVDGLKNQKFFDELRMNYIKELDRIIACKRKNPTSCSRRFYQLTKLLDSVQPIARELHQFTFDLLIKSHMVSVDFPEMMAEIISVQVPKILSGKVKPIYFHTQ
The experiment in a line: (§3) Displacement of fluormone-DHT green from His/GST-tagged rat AR ligand binding domain after 4 to 8 hrs by fluorescence polarization assay.

Test [13] has as its target T5, Androgen receptor (Rattus norvegicus, UniProt P15207).
T5 sequence (P15207 whole entry): T4 sequence (whole entry)
Described as §3.

In test [14] the target is T1, Androgen receptor (Homo sapiens). The experiment in a line: Antagonist activity at AR in human LNCAP cells assessed as downregulation of AR protein expression after 24 hrs by Western blot analysis. The test is classed as cell-based.
Test [15] has as its system T2, Androgen receptor (Homo sapiens), P10275 [F877L]. The experiment in a line: (§4) Antagonist activity at AR F876L mutant (unknown origin) expressed in human PC3 cells assessed as inhibition of DHT-induced receptor transactivation after 24 hrs by PSA-luciferase reporter gene assay. Format: cell-based. Particulars: PC-3.
Test [16] deals with Androgen receptor (Homo sapiens, UniProt P10275, F877L). Described as §4. Format: cell-based, PC-3.
The next test in a line: cells. Particulars: Homo sapiens, PC-3, 24 h.

Residue numbers refer to the chain shown, from its start. Calls of active or inactive are those of the source. The calls are words filed in the database; no cut-off is given here.

Chain of Androgen receptor (Homo sapiens, UniProt P10275, F877L) (P10275 whole entry F877L): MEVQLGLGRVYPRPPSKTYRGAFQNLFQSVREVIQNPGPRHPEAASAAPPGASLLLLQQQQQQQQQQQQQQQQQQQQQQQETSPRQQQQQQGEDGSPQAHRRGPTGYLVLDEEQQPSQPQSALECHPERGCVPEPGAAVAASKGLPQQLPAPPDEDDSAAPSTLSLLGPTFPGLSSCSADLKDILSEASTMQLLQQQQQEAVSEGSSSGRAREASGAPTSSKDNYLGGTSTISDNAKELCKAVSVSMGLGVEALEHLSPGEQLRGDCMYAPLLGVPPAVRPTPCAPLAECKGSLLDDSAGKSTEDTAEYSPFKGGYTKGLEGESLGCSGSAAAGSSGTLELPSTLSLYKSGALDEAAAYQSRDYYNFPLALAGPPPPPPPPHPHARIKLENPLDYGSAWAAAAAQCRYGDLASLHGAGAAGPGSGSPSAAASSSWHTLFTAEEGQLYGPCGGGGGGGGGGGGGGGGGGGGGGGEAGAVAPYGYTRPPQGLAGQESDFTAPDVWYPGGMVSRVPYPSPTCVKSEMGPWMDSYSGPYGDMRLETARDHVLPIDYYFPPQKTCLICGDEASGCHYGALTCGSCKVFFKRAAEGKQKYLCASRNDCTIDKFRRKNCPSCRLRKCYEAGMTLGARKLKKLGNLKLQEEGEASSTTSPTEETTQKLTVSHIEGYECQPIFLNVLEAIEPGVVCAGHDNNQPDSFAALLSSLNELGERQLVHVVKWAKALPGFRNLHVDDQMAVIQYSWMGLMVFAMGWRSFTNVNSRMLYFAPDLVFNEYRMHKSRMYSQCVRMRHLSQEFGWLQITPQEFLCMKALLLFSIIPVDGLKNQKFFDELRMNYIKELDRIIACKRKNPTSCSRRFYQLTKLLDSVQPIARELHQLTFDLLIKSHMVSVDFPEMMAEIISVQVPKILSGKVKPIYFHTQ
Chain of Androgen receptor (Homo sapiens), P10275 [T878A] (P10275 whole entry T878A): as the sequence (P10275 whole entry F877L) above, with L877F, T878A counted along it
Chain of Androgen receptor (Homo sapiens, UniProt P10275, T878A) (P10275 whole entry T878A): as the sequence (P10275 whole entry F877L) above, with L877F, T878A counted along it
Description for cells: Antagonist activity at AR W741C/T877A double mutant (unknown origin) transfected in human PC3 cells assessed as inhibition of DHT-induced receptor transcriptional activation after 24 hrs by PSA-luciferase reporter gene assay

`C[C@@]1(C(=O)O)CC[C@]2(C)CC[C@]3(C)C4=CC(=O)c5c(cc(O)c(O)c5C=O)[C@]4(C)CC[C@@]3(C)[C@@H]2C1`: in [1], the inhibition entry is “Active”.
For `CC(C)[C@]12O[C@H]1[C@@H]1O[C@]13[C@]1(O[C@H]1C[C@H]1C4=C(CC[C@@]13C)C(=O)OC4)[C@@H]2O`, the inhibition result in [2] and in [1] was “Active” in each case.
Turning to `CC(O)(CS(=O)(=O)c1ccc(F)cc1)C(=O)Nc1ccc(C#N)c(C(F)(F)F)c1` (stereo not given), the outcome with PC-3 [3] was Active.
Regarding `CC1(C)[C@@H](O)CC[C@]2(C)[C@H]3CC=C4[C@@H]5C[C@@]6(C)C[C@H](OC6=O)[C@]5(C)CC[C@@]4(C)[C@]3(C)CC[C@@H]12`, the inhibition result in [1] is “Active”.
In the case of `CC1=C(O)C(=O)C=C2C1=CC=C1[C@@]2(C)CC[C@@]2(C)[C@@H]3C[C@](C)(C(=O)O)CC[C@]3(C)CC[C@]12C`, the inhibition result in test [1] was “Active”.
Regarding `CC(C)[C@]12O[C@H]1[C@@H]1O[C@@]13[C@@]1(C)CCC4=C(COC4=O)[C@@H]1C[C@@H]1O[C@@]13C2=O`, the inhibition entry in test [2] and in [1] was “Active” in each case.
For `CC(C)c1ccc2c(c1O)CC[C@H]1C3=C(CC[C@]21C)C(=O)OC3` [TRIPTOPHENOLIDE], the inhibition result in test [4], in [2], in test [9], in [10] and in test [1] was “Active” each time. Besides, the inhibition entry in [5], in [7], in test [12], in test [14] and in test [15] was “Dose-dependent effect” each time. For the same compound, the IC50 on Androgen receptor [6] was found to be 0.26 µM; on Androgen receptor [8] it was 0.388 µM; on Androgen receptor [13], 0.467 µM; on Androgen receptor [16] it was 0.48 µM; in the test “cells”, 0.437 µM. Further, the “growth inhibition (GI)” value with LNCaP was “Dose-dependent effect”. Moreover, the “growth inhibition (GI)” value in the test with PC-3 [11] is “Active”.
